# Results published in the supplement of paper PMC10307832.
# Legend:
# Test in all cases: relative viability (nuclei count vs DMSO), 5 days (fraction); higher = more cells survive
# [1] = tested on: NCI-H1395
# How it was run: (§1)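 Lung cancer cell lines were seeded in 1536-well plates and dosed by pin tool the next day, with either a single drug or a fixed anchor-drug dose combined with five library-drug doses (not always all listed) spaced in √10 steps. Five days later, one step fixed the cells and stained their nuclei (final 0.05% Triton X-100, 1% formaldehyde, 1 ug/ml Hoechst), and nuclei were counted on 4× images. Relative viability is the nuclei count in treated wells divided by the count in vehicle wells, and each value is the median of duplicate plates.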
# [2] = tested on: NCI-H1793
# How it was run: as §1
# [3] = tested on: EMC-BAC-2
# How it was run: as §1
# [4] = tested on: UMC-11
# How it was run: as §1
# [5] = tested on: NCI-H2405
# How it was run: as §1
# [6] = tested on: NCI-H1915
# How it was run: as §1
# [7] = tested on: NCI-H1792
# How it was run: as §1
# [8] = tested on: RERF-LC-KJ
# How it was run: as §1
# [9] = tested on: LCLC-103H
# How it was run: as §1
# [10] = tested on: NCI-H1437
# How it was run: as §1
# [11] = tested on: NCI-H2342
# How it was run: as §1
# [12] = tested on: NCI-H2023
# How it was run: as §1
# [13] = tested on: NCI-H1651
# How it was run: as §1
# [14] = tested on: 201T
# How it was run: as §1
# [15] = tested on: SK-LU-1
# How it was run: as §1
# [16] = tested on: NCI-H1975
# How it was run: as §1
# [17] = tested on: ABC-1
# How it was run: as §1
# [18] = tested on: LOU-NH91
# How it was run: as §1
# [19] = tested on: HCC-78
# How it was run: as §1
# [20] = tested on: NCI-H23
# How it was run: as §1
# [21] = tested on: NCI-H647
# How it was run: as §1
# [22] = tested on: EPLC-272H
# How it was run: as §1
# [23] = tested on: NCI-H661
# How it was run: as §1
structure (smiles),measurement,setting,value
CCCCCCCCCCCC1=C(O)C(=O)C=C(O)C1=O [Embelin] + Cc1nc(Nc2ncc(C(=O)Nc3c(C)cccc3Cl)s2)cc(N2CCN(CCO)CC2)n1 [Dasatinib] (partner 0.075 µM),relative viability,[1]; first compound 0.08 µM,0.393
same,relative viability,[1]; first compound 0.8 µM,0.484
same,relative viability,[1]; first compound 2.53 µM,0.404
same,relative viability,[1]; first compound 8 µM,0.352
same,relative viability,[2]; first compound 0.08 µM,0.397
same,relative viability,[2]; first compound 0.8 µM,0.432
same,relative viability,[2]; first compound 2.53 µM,0.446
same,relative viability,[2]; first compound 8 µM,0.334
same,relative viability,[3]; first compound 0.08 µM,0.304
same,relative viability,[3]; first compound 0.8 µM,0.46
same,relative viability,[3]; first compound 2.53 µM,0.341
same,relative viability,[3]; first compound 8 µM,0.291
same,relative viability,[4]; first compound 0.08 µM,0.45
same,relative viability,[4]; first compound 0.8 µM,0.48
same,relative viability,[4]; first compound 2.53 µM,0.519
same,relative viability,[4]; first compound 8 µM,0.437
same,relative viability,[5]; first compound 0.08 µM,0.238
same,relative viability,[5]; first compound 0.8 µM,0.24
same,relative viability,[5]; first compound 2.53 µM,0.178
same,relative viability,[5]; first compound 8 µM,0.215
same,relative viability,[6]; first compound 0.08 µM,0.309
same,relative viability,[6]; first compound 0.8 µM,0.361
same,relative viability,[6]; first compound 2.53 µM,0.321
same,relative viability,[6]; first compound 8 µM,0.335
same,relative viability,[7]; first compound 0.08 µM,0.771
same,relative viability,[7]; first compound 0.8 µM,0.803
same,relative viability,[7]; first compound 2.53 µM,0.792
same,relative viability,[7]; first compound 8 µM,0.867
same,relative viability,[8]; first compound 0.08 µM,0.82
same,relative viability,[8]; first compound 0.8 µM,0.983
same,relative viability,[8]; first compound 2.53 µM,0.81
same,relative viability,[8]; first compound 8 µM,0.704
same,relative viability,[9]; first compound 0.08 µM,0.453
same,relative viability,[9]; first compound 0.8 µM,0.517
same,relative viability,[9]; first compound 2.53 µM,0.511
same,relative viability,[9]; first compound 8 µM,0.405
same,relative viability,[10]; first compound 0.08 µM,0.407
same,relative viability,[10]; first compound 0.8 µM,0.459
same,relative viability,[10]; first compound 2.53 µM,0.337
same,relative viability,[10]; first compound 8 µM,0.275
same,relative viability,[11]; first compound 0.08 µM,0.288
same,relative viability,[11]; first compound 0.8 µM,0.346
same,relative viability,[11]; first compound 2.53 µM,0.326
same,relative viability,[11]; first compound 8 µM,0.342
same,relative viability,[12]; first compound 0.08 µM,0.565
same,relative viability,[12]; first compound 0.8 µM,0.673
same,relative viability,[12]; first compound 2.53 µM,0.611
same,relative viability,[12]; first compound 8 µM,0.556
same,relative viability,[13]; first compound 0.08 µM,0.388
same,relative viability,[13]; first compound 0.8 µM,0.508
same,relative viability,[13]; first compound 2.53 µM,0.438
same,relative viability,[13]; first compound 8 µM,0.335
same,relative viability,[14]; first compound 0.08 µM,0.562
same,relative viability,[14]; first compound 0.8 µM,0.641
same,relative viability,[14]; first compound 2.53 µM,0.519
same,relative viability,[14]; first compound 8 µM,0.613
same,relative viability,[15]; first compound 0.08 µM,0.192
same,relative viability,[15]; first compound 0.8 µM,0.191
same,relative viability,[15]; first compound 2.53 µM,0.199
same,relative viability,[15]; first compound 8 µM,0.138
same,relative viability,[16]; first compound 0.08 µM,0.31
same,relative viability,[16]; first compound 0.8 µM,0.396
same,relative viability,[16]; first compound 2.53 µM,0.502
same,relative viability,[16]; first compound 8 µM,0.333
same,relative viability,[17]; first compound 0.08 µM,0.575
same,relative viability,[17]; first compound 0.8 µM,0.657
same,relative viability,[17]; first compound 2.53 µM,0.528
same,relative viability,[17]; first compound 8 µM,0.53
same,relative viability,[18]; first compound 0.08 µM,0.567
same,relative viability,[18]; first compound 0.8 µM,0.624
same,relative viability,[18]; first compound 2.53 µM,0.561
same,relative viability,[18]; first compound 8 µM,0.531
same,relative viability,[19]; first compound 0.08 µM,0.373
same,relative viability,[19]; first compound 0.8 µM,0.44
same,relative viability,[19]; first compound 2.53 µM,0.353
same,relative viability,[19]; first compound 8 µM,0.451
same,relative viability,[20]; first compound 0.08 µM,0.82
same,relative viability,[20]; first compound 0.8 µM,0.755
same,relative viability,[20]; first compound 2.53 µM,1.08
same,relative viability,[20]; first compound 8 µM,0.612
same,relative viability,[21]; first compound 0.08 µM,0.214
same,relative viability,[21]; first compound 0.8 µM,0.242
same,relative viability,[21]; first compound 2.53 µM,0.123
same,relative viability,[21]; first compound 8 µM,0.14
same,relative viability,[22]; first compound 0.08 µM,0.393
same,relative viability,[22]; first compound 0.8 µM,0.469
same,relative viability,[22]; first compound 2.53 µM,0.442
same,relative viability,[22]; first compound 8 µM,0.277
same,relative viability,[23]; first compound 0.08 µM,0.852
same,relative viability,[23]; first compound 0.8 µM,1.08
same,relative viability,[23]; first compound 2.53 µM,0.99
same,relative viability,[23]; first compound 8 µM,0.703
